Tested on: EPCR
Assay: EPCR surface expression on cultured CD34+ cells by flow cytometry
Description: Fresh or cultured CB cells were labelled or sorted for different HSPC phenotypes using the following antibodies. […] Cells were analyzed on a BD Canto flow cytometer, and cell sorting (under low pressure conditions) was conducted on a BD Aria II cell sorter.

Compound: CC(C)n1cnc2c(NCCc3ccc(O)cc3)nc(-c3csc4ccccc34)nc21 [SR1]
- increase in proportion of EPCR+ cells / EPCR expression (CB, mPB or BM CD34+ cells, 7 days, UM171 38 nM, SR1 1000 nM (FIG. 2)): small increase

Compound: Nc1cccc2c1CN(C1CCC(=O)NC1=O)C2=O (centres unmarked) [lenalidomide]
- enrichment / expansion of EPCR+ population of cells (CD34+ cells (FIG. 17)): enriches
